US7598046B2 (priority 2003, dated 2009)
Read-outs that look alike come from different tables or passages of the source.

Tested on: PrP^Sc (conversion of PrP^C into PrP^Sc)
Assay type: biochemical, hamster
Conditions: for prion replication in vitro (PMCA signal): 30 min at 4° C., without cyclodextrin, 3200-fold and 12800-fold dilutions of scrapie brain homogenate

In the case of Apolipoprotein E, the “prion replication in vitro (PMCA signal)” value (1 and 10 μg hApo E) is reported as “increase”.
For Apolipoprotein B, the “prion replication in vitro (PMCA signal)” value (8 and 16 μg hApo B) was “increase”.
With methyl-β-cyclodextrin the “prion replication (PrP^Sc signal after PMCA): complete inhibition observed or not” value (5 mM methyl-β-cyclodextrin, normal brain homogenate treated 30 min, 10 cycles of PMCA, Western blot after PK) was “not”, the “prion replication (PrP^Sc signal after PMCA)” value (10 mM methyl-β-cyclodextrin, normal brain homogenate treated 30 min, 10 cycles of PMCA, Western blot after PK) was “complete inhibition” and the “prion replication (PrP^Sc signal after PMCA)” value (20 mM methyl-β-cyclodextrin, normal brain homogenate treated 30 min, 10 cycles of PMCA, Western blot after PK) was “complete inhibition”.
